# According to PubChem BioAssay AID1845194 (Molecular Pharmacology Branch, DTP, NCI, 2023):
# Tested on: 287954-098-R-J1 tumor spheroid viability
# Experiment: Anticancer human tumor 287954-098-R-J1 patient-derived Ewing sarcoma cell line growth inhibition
# Conditions: spheroids with HUVEC and MSC; for IC50: curve of first compound; for viability, T/C: stronger effect = lower value
# Excerpt: Multicellular complex tumor spheroid response to DNA repair inhibitors in combination with DNA-damaging drugs
# This study explores the anticancer activities of DNA-damaging drugs and inhibitors of DNA damage repair, both as single agents and in combinations. Complex tumor spheroids comprised of malignant cells, endothelial cells and mesenchymal stem cells served as an in vitro model for human solid tumors. This model system incorporates physiologically relevant features and patient-derived or established malignant cell lines with clinically relevant genetic alterations from many tumor types. Twenty-six patient-derived or established malignant cell lines were evaluated representing sarcoma, melanoma, small cell lung cancer (SCLC), non-small cell lung cancer (NSCLC), as well as bladder, ovarian and pancreatic cancers. The concentration ranges selected for each drug and investigational agent were based upon clinically achievable concentrations if the clinical Cmax of the agent was known.
# Compounds. The drugs and compounds olaparib (NSC753686), talazoparib (NSC767125), berzosertib (NSC777718), elimusertib (NSC800525), nedisertib (NSC802822), VX-984 (NSC792969), AZD-1390 (NSC803789), temozolomide (NSC362856), topotecan (NSC609699), trabectedin (NSC813783), staurosporine (NSC755774), and gemcitabine (NSC613327) were obtained from the National Cancer Institute (NCI) Developmental Therapeutics Program Chemical Repository. The FDA-approved anticancer drug set is available from the Developmental Therapeutics Program at https://dtp.cancer.gov/organization/dscb/obtaining/available_plates.htm. […] The stock solutions were prepared in dimethyl sulfoxide (DMSO, Sigma-Aldrich, St. Louis, MO, cat. D2650) at 400-fold the tested concentration and stored at -70 degrees C. Prior to their use, the stock solutions were diluted in fresh medium and the final DMSO concentration in the assay was 0.25% (v/v). All drugs and investigational agents were tested over a range starting from a high concentration at or near the clinical Cmax and decreasing in half-log increments. If the clinical Cmax for an agent had not been determined, the highest concentration tested was 10 microM.
# Cell Lines. The patient-derived cancer cell (PDC) lines: 156681-154-R-J1-PDC, 283228-195-R-J1-PDC, 287954-098-R-J1-PDC, 292921-168-R-J2-PDC, 349418-098-R-PDC, 425362-245-T-J1-PDC, 556581-035-R-J1-PDC, and BL0293-F563-PDC were received from the NCI Patient-Derived Models Repository (PDMR, https://pdmr.cancer.gov). The established cell lines HS-SY-2 (RRID:CVCL_8719), MPNST, and SYO-1 (RRID:CVCL_7146) were obtained from the Sloan Kettering Institute. The alveolar soft parts sarcoma cell line ASPS-1 (RRID:CVCL_S738) was established at the NCI and grown from internal seed stocks. The following established cell lines were purchased from the American Type Culture Collection (ATCC, Manassas, VA): G-401 (ATCC, cat. CRL-1441, RRID:CVCL_0270), SW982 (ATCC, cat. HTB-93, RRID:CVCL_1734), VA-ES-BJ (ATCC, cat. CRL-2138, RRID:CVCL_1785), NCI-H719 (ATCC, cat. CRL-5837, RRID:CVCL_1582), NCI-H196 (ATCC, cat. CRL-5823, RRID:CVCL_1509), NCI-H841 (ATCC, cat. CRL-5845, RRID:CVCL_1595), NCI-H1618 (ATCC, cat. CRL-5879, RRID:CVCL_1480), NCI-H1876 (ATCC, cat. CRL-5902, RRID:CVCL_1503), DMS 114 (ATCC, cat. CRL-2066; RRID:CVCL_1174), NCI-H211 (ATCC, cat. CRL-5824; RRID:CVCL_1529), and SW 1271 (ATCC, cat. CRL-2177, RRID:CVCL_1716). The small cell lung cancer cell line COR-L88 was purchased from Sigma-Aldrich (cat. 92031917-1VL, RRID:CVCL_1141). The non-small cell lung cancer cell lines NCI-H226 (RRID:CVCL_1544) and NCI-H322M (RRID:CVCL_1557) were established at the NCI and grown from internal seed stocks. Pooled donor human umbilical vein endothelial cells (HUVEC, Lonza, cat. CC-2519) and human mesenchymal stem cells (hMSC, Lonza, cat. PT-2501) were purchased from Lonza (Walkersville, MD).
# Cell Culture. All cells were maintained in an incubator at 37 degrees C and 5% CO2 with 95% humidity. […]
# [1] = second compound 1 µM, first compound 0.0316 µM
# [2] = second compound 1 µM, first compound 0.1 µM
# [3] = second compound 1 µM, first compound 0.316 µM
# [4] = second compound 1 µM, first compound 1 µM
# [5] = second compound 1 µM, first compound 3.16 µM
# [6] = second compound 1 µM, first compound 10 µM
# [7] = second compound 3.16 µM, first compound 0.0316 µM
# [8] = second compound 3.16 µM, first compound 0.1 µM
# [9] = second compound 3.16 µM, first compound 0.316 µM
# [10] = second compound 3.16 µM, first compound 1 µM
# [11] = second compound 3.16 µM, first compound 3.16 µM
# [12] = second compound 3.16 µM, first compound 10 µM
# [13] = second compound 10 µM, first compound 0.0316 µM
# [14] = second compound 10 µM, first compound 0.1 µM
# [15] = second compound 10 µM, first compound 0.316 µM
# [16] = second compound 10 µM, first compound 1 µM
# [17] = second compound 10 µM, first compound 3.16 µM
# [18] = second compound 10 µM, first compound 10 µM
# [19] = second compound 31.6 µM, first compound 0.0316 µM
# [20] = second compound 31.6 µM, first compound 0.1 µM
# [21] = second compound 31.6 µM, first compound 0.316 µM
# [22] = second compound 31.6 µM, first compound 1 µM
# [23] = second compound 31.6 µM, first compound 3.16 µM
# [24] = second compound 31.6 µM, first compound 10 µM
# [25] = second compound 100 µM, first compound 0.0316 µM
# [26] = second compound 100 µM, first compound 0.1 µM
# [27] = second compound 100 µM, first compound 0.316 µM
# [28] = second compound 100 µM, first compound 1 µM
# [29] = second compound 100 µM, first compound 3.16 µM
# [30] = second compound 100 µM, first compound 10 µM
# 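Note: spheroids exposed to compound for 7 days before viability readout.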
# 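Throughout, for viability, T/C: luminescent signal taken as surrogate of viable cell content; 100% = DMSO vehicle control viability and lower means growth inhibition.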
SMILES,IC50 (second compound 1 µM),IC50 (second compound 3.16 µM),IC50 (second compound 10 µM),IC50 (second compound 31.6 µM),IC50 (second compound 100 µM),"viability, T/C [1]","viability, T/C [2]","viability, T/C [3]","viability, T/C [4]","viability, T/C [5]","viability, T/C [6]","viability, T/C [7]","viability, T/C [8]","viability, T/C [9]","viability, T/C [10]","viability, T/C [11]","viability, T/C [12]","viability, T/C [13]","viability, T/C [14]","viability, T/C [15]",other results
[2H]c1nc(C)nc([2H])c1-c1cc(NC[C@@H](C)c2cccc3c(C(=O)NC)ccnc23)ncn1 + Cn1nnc2c(C(N)=O)ncn2c1=O,> 10 µM,> 10 µM,> 10 µM,> 10 µM,> 10 µM,104%,103%,106%,97.6%,99.5%,101%,106%,93.9%,99.3%,106%,107%,99.3%,101%,100%,99.7%,"viability, T/C [16]: 104%; viability, T/C [17]: 103%; viability, T/C [18]: 105%; viability, T/C [19]: 106%; viability, T/C [20]: 103%; viability, T/C [21]: 102%; viability, T/C [22]: 103%; viability, T/C [23]: 98.8%; viability, T/C [24]: 106%; viability, T/C [25]: 99.7%; viability, T/C [26]: 103%; viability, T/C [27]: 97.7%; viability, T/C [28]: 98.2%; viability, T/C [29]: 97.6%; viability, T/C [30]: 94.4%"
COc1cc(C)[nH]c(=O)c1CN1CCc2c(Cl)cc(C(OC)C3COC3)c(Cl)c2C1=O (stereo not given) + Cn1nnc2c(C(N)=O)ncn2c1=O,> 10 µM,> 10 µM,> 10 µM,> 10 µM,> 10 µM,98%,89.7%,96.8%,93.3%,89%,90.7%,105%,100%,96.5%,91.9%,86.9%,93.3%,102%,99.6%,90.1%,"viability, T/C [16]: 89.6%; viability, T/C [17]: 89.9%; viability, T/C [18]: 93%; viability, T/C [19]: 102%; viability, T/C [20]: 97.4%; viability, T/C [21]: 93.3%; viability, T/C [22]: 89.8%; viability, T/C [23]: 90.7%; viability, T/C [24]: 96.1%; viability, T/C [25]: 95%; viability, T/C [26]: 99.9%; viability, T/C [27]: 87.7%; viability, T/C [28]: 83.9%; viability, T/C [29]: 87%; viability, T/C [30]: 83.5%"
